According to PubChem BioAssay AID1259407 (Chemical Carcinogenesis Research Information System (CCRIS), 2018):
Active and inactive are the calls of the source. No rule for the calls is given here.

Test system: CCRIS mutagenicity, Ames/micronucleus/aberration tests
Test: CCRIS mutagenicity studies
Details: Test System: AMES SALMONELLA TYPHIMURIUM

Measured: mutagenic call

CC(O)C#N (stereo unspecified)
inactive: Strain/Indicator: TA97, Metabolic Activation: HAMSTER, LIVER, S-9, AROCLOR 1254 (10%), Method: PREINCUBATION inactive; negative | Strain/Indicator: TA97, Metabolic Activation: HAMSTER, LIVER, S-9, AROCLOR 1254 (30%), Method: PREINCUBATION inactive; negative | Strain/Indicator: TA97, Metabolic Activation: NONE, Method: PREINCUBATION inactive; negative | Strain/Indicator: TA97, Metabolic Activation: RAT, LIVER, S-9, AROCLOR 1254 (5%), Method: PREINCUBATION inactive; negative | Strain/Indicator: TA97, Metabolic Activation: RAT, LIVER, S-9, AROCLOR 1254 (10%), Method: PREINCUBATION inactive; negative | Strain/Indicator: TA97, Metabolic Activation: RAT, LIVER, S-9, AROCLOR 1254 (30%), Method: PREINCUBATION inactive; negative | Strain/Indicator: TA98, Metabolic Activation: HAMSTER, LIVER, S-9, AROCLOR 1254 (10%), Method: PREINCUBATION inactive; negative | Strain/Indicator: TA98, Metabolic Activation: HAMSTER, LIVER, S-9, AROCLOR 1254 (30%), Method: PREINCUBATION inactive; negative | Strain/Indicator: TA98, Metabolic Activation: NONE, Method: PREINCUBATION inactive; negative | Strain/Indicator: TA98, Metabolic Activation: RAT, LIVER, S-9, AROCLOR 1254 (10%), Method: PREINCUBATION inactive; negative | Strain/Indicator: TA98, Metabolic Activation: RAT, LIVER, S-9, AROCLOR 1254 (30%), Method: PREINCUBATION inactive; negative | Strain/Indicator: TA100, Metabolic Activation: HAMSTER, LIVER, S-9, AROCLOR 1254 (10%), Method: PREINCUBATION inactive; negative | Strain/Indicator: TA100, Metabolic Activation: HAMSTER, LIVER, S-9, AROCLOR 1254 (30%), Method: PREINCUBATION inactive; negative | Strain/Indicator: TA100, Metabolic Activation: NONE, Method: PREINCUBATION inactive; negative | Strain/Indicator: TA100, Metabolic Activation: RAT, LIVER, S-9, AROCLOR 1254 (5 OR 30%), Method: PREINCUBATION inactive; negative | Strain/Indicator: TA100, Metabolic Activation: RAT, LIVER, S-9, AROCLOR 1254 (10%), Method: PREINCUBATION inactive; negative | Strain/Indicator: TA1535, Metabolic Activation: HAMSTER, LIVER, S-9, AROCLOR 1254 (10%), Method: PREINCUBATION inactive; negative | Strain/Indicator: TA1535, Metabolic Activation: HAMSTER, LIVER, S-9, AROCLOR 1254 (30%), Method: PREINCUBATION inactive; negative | Strain/Indicator: TA1535, Metabolic Activation: NONE, Method: PREINCUBATION inactive; negative | Strain/Indicator: TA1535, Metabolic Activation: RAT, LIVER, S-9, AROCLOR 1254 (10%), Method: PREINCUBATION inactive; negative | Strain/Indicator: TA1535, Metabolic Activation: RAT, LIVER, S-9, AROCLOR 1254 (30%), Method: PREINCUBATION inactive; negative | Strain/Indicator: TA1537, Metabolic Activation: HAMSTER, LIVER, S-9, AROCLOR 1254 (30%), Method: PREINCUBATION inactive; negative | Strain/Indicator: TA1537, Metabolic Activation: RAT, LIVER, S-9, AROCLOR 1254 (30%), Method: PREINCUBATION inactive; negative

C1=Cc2c(cc3ccc4cccc5ccc2c3c45)CC1
active: Strain/Indicator: TA98, Metabolic Activation: RAT, LIVER, S-9, AROCLOR 1254, Method: STANDARD PLATE active; positive | Strain/Indicator: TA1537, Metabolic Activation: RAT, LIVER, S-9, AROCLOR 1254, Method: STANDARD PLATE active; positive | Strain/Indicator: TA1538, Metabolic Activation: RAT, LIVER, S-9, AROCLOR 1254, Method: STANDARD PLATE active; positive
